The source of these data is patent publication US9056111B1, “Selective efflux inhibitors and related pharmaceutical compositions and methods of treatment” (STC.UNM, priority 2011, dated 2015).

Converted amounts (≈) assume the structure as drawn. “And” between values parts separate entries of the source, which are not always exact repeats. Equal entries are not always repeated. “Also recorded” adds a separate entry of the source.

In series [1] the test system is ABCG2 over-expressing Igrov1/T8 tumors. The experiment in a line: ABCG2 resistant Igrov1/T8 tumor xenograft, combination with topotecan. The format is in vivo, CB-17 SCID mice. Particulars: for tumor size, combination of TPT and inhibitor: 150 nM TPT + 100 nM SID 88095709 (1) or 500 nM SID 85752814 (7), up to 96 hr. The procedure: Specific-pathogen-free adult CB-17 female SCID mice (5-6 weeks of age) weighing 20-25 g, are purchased. Briefly, ABCG2 over-expressing Igrov1/T8 cells are injected (5×10^6 cells/mouse). Prior to injection, Igrov1/T8 cells are maintained in topotecan in order to assure continuous expression of ABCG2. Tumors are allowed to grow for 3-4 weeks or until tumor volumes are greater than ˜100 cubic millimeters, at which time they are stratified into treatment groups. Treatment is administered and we observe the size of the tumor and weight of the mouse over a 7 day period. At the end of 7 days, we: 1) sacrifice the animal; 2) measure and weigh the tumor (if present); 3) analyze the histology of the tumor as well as other organs for evidence of toxicity; and 4) measure the expression of ABCG2 receptors on the tumor to determine if in vivo growth has altered ABCG2 expression. In our initial studies, we have generally observed high survival at 4 weeks (>90%) which escalates rapidly with near 100% mortality by 6 weeks. This approach is well described elsewhere.^9
Tumor-bearing mice were injected with either 150 nM TPT, 100 nM SID 88095709 (probe resupply), or 500 nM SID 85752814 (original SMR hit).
Igrov1/T8 cells were injected into the hind limbs of CB-17 SCID mice at a concentration of 1×10^7 cells in 200 μL, n of 3 per condition. The tumor was grown until the volume was in the range of 75 mm^3 to 250 mm^3. […] Injections were repeated daily and the size of the tumor was determined as a fraction of the starting size. After four days the mice were sacrificed and any recurring tumor was verified by light microscopy examination of histological sections. Mice were studied and maintained in accordance with guidelines of our Institutional Animal Research Committee at UNM HSC.

Series [2] has as its system ABCG2 over-expressing Ig-MXP3 cells. The experiment in a line: Chemoreversal assay: potentiation of mitoxantrone (MTX) killing. The series is classed as cell-based.
Another series has as its target ABCB1 (Homo sapiens, UniProt P08183). The experiment in a line: JC-1 efflux inhibition dose response, flow cytometry, Jurkat-DNR cells. The procedure, abridged: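 Jurkat-DNR cells pre-stained with 1 μM JC-1 were incubated with compound (final 50 μM to 69 nM, […]) at 1×10^6 cells/mL, rotated 30 min at 25° C. Retained JC-1 read by flow cytometry (488 nm excitation, 530/40 nm emission). Curves fitted to a four-parameter logistic.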

The test system of another series is Jurkat-DNR cells. Briefly: Direct cytotoxicity (Toxic Dose 50) without chemotherapeutic. Particulars: Jurkat-DNR cells, inhibitor without chemotherapeutic. In outline:
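Jurkat-DNR cells grown in media alone with compound over a 3-order-of-magnitude range for 3 and 7 days, keeping at least 1×10^5 cells/mL. Viability by trypan blue exclusion counted under light microscopy; TD50 derived from cell death.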

A short description of series [3]: Aqueous solubility in PBS. The format is physicochemical. As to conditions: phosphate buffered saline (PBS), aqueous buffer; PBS pH 7.4, room temperature (23° C.). The procedure:
PBS by definition is 137 mMNaCl, 2.7 mMKCl, 10 mM sodium phosphate dibasic, 2 mM potassium phosphate monobasic and a pH of 7.4.

Chain of ABCB1 (P08183 whole entry): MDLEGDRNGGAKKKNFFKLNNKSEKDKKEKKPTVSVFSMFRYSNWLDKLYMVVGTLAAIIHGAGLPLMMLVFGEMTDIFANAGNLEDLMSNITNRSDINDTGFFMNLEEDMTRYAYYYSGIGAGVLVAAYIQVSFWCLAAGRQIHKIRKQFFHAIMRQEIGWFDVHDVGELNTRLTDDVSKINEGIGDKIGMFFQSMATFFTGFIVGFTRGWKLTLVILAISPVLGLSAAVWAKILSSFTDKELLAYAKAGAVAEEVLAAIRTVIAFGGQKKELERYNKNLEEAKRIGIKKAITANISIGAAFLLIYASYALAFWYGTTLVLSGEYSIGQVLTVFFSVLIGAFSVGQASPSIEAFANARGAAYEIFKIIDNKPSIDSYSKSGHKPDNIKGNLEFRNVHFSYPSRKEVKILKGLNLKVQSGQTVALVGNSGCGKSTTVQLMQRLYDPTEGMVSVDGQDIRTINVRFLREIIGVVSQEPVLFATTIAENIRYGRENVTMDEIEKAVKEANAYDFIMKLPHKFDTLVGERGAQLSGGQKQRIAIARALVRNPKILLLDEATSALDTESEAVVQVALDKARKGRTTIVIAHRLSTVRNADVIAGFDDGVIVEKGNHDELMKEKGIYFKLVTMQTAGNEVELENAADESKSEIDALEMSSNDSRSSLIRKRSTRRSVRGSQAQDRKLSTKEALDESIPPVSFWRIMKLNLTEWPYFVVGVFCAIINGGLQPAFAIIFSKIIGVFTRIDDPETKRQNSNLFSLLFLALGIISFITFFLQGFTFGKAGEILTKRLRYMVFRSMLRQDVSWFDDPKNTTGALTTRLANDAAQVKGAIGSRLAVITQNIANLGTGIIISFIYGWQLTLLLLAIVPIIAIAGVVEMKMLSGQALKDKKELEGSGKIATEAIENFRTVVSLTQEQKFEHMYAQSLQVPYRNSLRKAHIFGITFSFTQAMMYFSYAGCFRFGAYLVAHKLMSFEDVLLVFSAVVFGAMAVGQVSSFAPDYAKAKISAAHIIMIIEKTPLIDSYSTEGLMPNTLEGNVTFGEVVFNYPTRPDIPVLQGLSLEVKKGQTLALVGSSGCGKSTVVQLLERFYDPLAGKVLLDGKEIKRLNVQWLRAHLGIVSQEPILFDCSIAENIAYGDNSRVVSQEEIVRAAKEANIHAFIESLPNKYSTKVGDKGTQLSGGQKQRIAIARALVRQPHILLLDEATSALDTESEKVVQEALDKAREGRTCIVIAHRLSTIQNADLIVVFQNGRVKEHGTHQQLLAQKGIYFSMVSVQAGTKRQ

For the compound `O=C(c1ccoc1)N1CCN(c2cc(-c3ccco3)nc3cc(-c4ccccc4)nn23)CC1` [Compound 1, (4-(5-(furan-2-yl)-2-phenylpyrazolo[1,5-a]pyrimidin-7-yl)piperazin-1-yl)(furan-3-yl)methanone], the “tumor size, combination of TPT and inhibitor” value was “dramatically reduced tumor size; also recorded: Significant tumor reduction” in series [1] and “dramatically reduced tumor size” in series [1] (listed as SID 88095709). Also, the “tumor size, single agent” value in series [1] (150 nM TPT, 100 nM SID 88095709 or 500 nM SID 85752814 alone) is recorded as “remained the same or increased”. Further, in series [1] (inhibitor alone (100 nM or 500 nM as printed), Example 3), the “tumor size, inhibitor alone” value was “No reduction in size”. In addition, the “selectivity in chemoreversal (cell killing assay)” value in series [2] (ABCG2 vs ABCB1) worked out at 1.8 fold. Also, the EC50 in series [2] (Ig-MXP3 cells, constant 30 nM MTX, varied inhibitor dose, read-out: CR50 ABCG2) was determined as 0.31 µM; at ABCB1, 4.65 µM. Besides, the 50% inhibitory concentration (IC50) on ABCB1 (IC50 ABCB1 (efflux inhibition of JC-1 substrate), Jurkat-DNR cells over-expressing ABCB1, averages of two to four replicates) was 4.7 µM and 4.65 µM. For the same compound, the “TD50 ABCB1” value stood at 5.52 µM with Jurkat-DNR cells and 5.5 µM in the series on Jurkat-DNR cells (listed as SID 88095709). Also, the solubility in series [3] was found to be 0.51 µg/mL (≈ 1.16 µM).
